Results on one compound are retold here after publication PMC9153040 (Blood Advances, 2021).

The assay deals with T1, ALAS2 (recombinant erythroid-specific 5-aminolevulinate synthase; hsALAS2 in transgenic MEL cells) (Homo sapiens, UniProt P22557).
T1 sequence (P22557 50-587): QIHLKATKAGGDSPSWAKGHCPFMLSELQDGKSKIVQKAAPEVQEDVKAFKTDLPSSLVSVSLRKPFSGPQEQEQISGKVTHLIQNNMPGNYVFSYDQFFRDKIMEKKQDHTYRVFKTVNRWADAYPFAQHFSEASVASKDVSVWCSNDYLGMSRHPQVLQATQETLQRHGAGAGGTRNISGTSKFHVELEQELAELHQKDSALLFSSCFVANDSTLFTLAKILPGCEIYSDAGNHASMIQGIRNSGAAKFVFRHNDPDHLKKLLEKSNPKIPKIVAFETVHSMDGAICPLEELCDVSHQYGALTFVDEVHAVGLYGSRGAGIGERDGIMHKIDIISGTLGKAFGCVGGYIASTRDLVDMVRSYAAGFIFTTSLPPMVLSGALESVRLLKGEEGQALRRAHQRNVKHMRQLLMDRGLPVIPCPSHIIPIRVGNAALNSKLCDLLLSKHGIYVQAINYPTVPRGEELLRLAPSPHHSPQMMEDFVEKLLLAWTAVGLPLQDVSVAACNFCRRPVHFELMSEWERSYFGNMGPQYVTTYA
Nature of the assay: discontinuous colorimetric assay of ALA. It counts as biochemical.

A word on the Ki: it is the dissociation constant of the complex between target and ligand, obtained from inhibition or displacement. On to `C=C(CC(=O)SCCNC(=O)CCNC(=O)[C@H](O)C(C)(C)COP(=O)(O)OP(=O)(O)OC[C@H]1O[C@@H](n2cnc3c(N)ncnc32)[C@H](O)[C@@H]1OP(=O)(O)O)C(=O)O` [itaconyl-CoA], for which the Ki amounted to 100 ± 20 µM.
